Laboratory results published in patent US7195893B2, “Nucleic acids encoding α2δ calcium channel subunits and methods for making and using them” (Neuromed Pharmaceuticals Ltd., priority 2003, dated 2007).
Where a name gives a salt, the structure may show the parent alone.

Legend:
α2δ-2 = α2δ-2 (Homo sapiens, UniProt Q9NY47); conditions: Marais et al. 2001; cited from earlier work
[1] = biological target: T1, rat α1B+β1b+chicken α2δ Ca2+ channel (Rattus norvegicus, UniProt Q02294); test: whole-cell patch clamp screening for calcium channel blockers; assay type: cell-based; conditions: 600 nM, HEK cells, n=3, FIG. 4
T1 construct: expressed in transfected cells; host or cells: HEK 293
Experimental: After an incubation period of 24 to 72 hrs, the culture medium was removed and replaced with an external recording solution containing (in mM) 5 BaCl, 129 CsCl, 1 MgCl2, 10 HEPES, 10 glucose, pH 7.4 with CsOH. Whole-cell patch clamp recordings were made with an Axopatch 200B amplifier (Axon Instruments, USA). Recording electrodes with typical resistances of 4–8 MΩ were backfilled with (in mM) 108 caesium-methansulfonate, 2 MgCl2, 10 HEPES, 11 EGTA, 2 ATP, pH 7.2 with CsOH. To create command potentials and acquire data, Clampex 8.2 software (Axon Instruments, USA) and a Digidata 1322A A/D converter interface (Axon Instrument, USA) were used. Currents were elicited at test potential of +20 mV (50 ms duration) from a holding potential of −80 mV. Leak and capacitance currents were subtracted on-line with a standard P/4 protocol. Evoked currents were filtered by a low-pass Bessel filter set at 1 kHz. Signals were acquired at 2.02 kHz and analyzed offline using pClamp 8.2 (Axon Instruments, USA) and Origin (OriginLab Corporation, USA) software. The effects of co-expressing the α2δ subunit of Example 1 with the rat α1B+β1b calcium channel subunits were tested by comparing average current density (Ipeak/cell capacitance) with and without α2δ.
To screen for calcium channel blockers, the whole-cell patch clamp recording technique used was as described in Example 2. […]

rat α1B+β1b Ca2+ channel = test: whole-cell patch clamp, average current density with and without α2δ in transfected HEK 293 cells; assay type: cell-based; conditions: HEK 293, 6 cells, test potential +20 mV, holding −80 mV, mean±S.E.M.
Experimental: Human embryonic kidney cells, HEK 293 (ATCC# CRL 1573) were grown in standard DMEM medium supplemented with 2 mM glutamine and 10% fetal bovine serum and transfected by a standard calcium-phosphate-DNA co-precipitation method or by lipofection with the full-length chicken α2δ-1 calcium channel cDNA in the mammalian expression vector pBK-RSV (see Current protocols in Molecular Biology): alone or in combination with expression vectors encoding α1 and β subunits, and with vectors expressing green fluorescent protein (GFP).
After an incubation period of 24 to 72 hrs, the culture medium was removed and replaced with an external recording solution containing (in mM) 5 BaCl, 129 CsCl, 1 MgCl2, 10 HEPES, 10 glucose, pH 7.4 with CsOH. Whole-cell patch clamp recordings were made with an Axopatch 200B amplifier (Axon Instruments, USA). Recording electrodes with typical resistances of 4–8 MΩ were backfilled with (in mM) 108 caesium-methansulfonate, 2 MgCl2, 10 HEPES, 11 EGTA, 2 ATP, pH 7.2 with CsOH. To create command potentials and acquire data, Clampex 8.2 software (Axon Instruments, USA) and a Digidata 1322A A/D converter interface (Axon Instrument, USA) were used. […] Signals were acquired at 2.02 kHz and analyzed offline using pClamp 8.2 (Axon Instruments, USA) and Origin (OriginLab Corporation, USA) software. […]

Chain of α2δ-2 (Q9NY47 19-1150): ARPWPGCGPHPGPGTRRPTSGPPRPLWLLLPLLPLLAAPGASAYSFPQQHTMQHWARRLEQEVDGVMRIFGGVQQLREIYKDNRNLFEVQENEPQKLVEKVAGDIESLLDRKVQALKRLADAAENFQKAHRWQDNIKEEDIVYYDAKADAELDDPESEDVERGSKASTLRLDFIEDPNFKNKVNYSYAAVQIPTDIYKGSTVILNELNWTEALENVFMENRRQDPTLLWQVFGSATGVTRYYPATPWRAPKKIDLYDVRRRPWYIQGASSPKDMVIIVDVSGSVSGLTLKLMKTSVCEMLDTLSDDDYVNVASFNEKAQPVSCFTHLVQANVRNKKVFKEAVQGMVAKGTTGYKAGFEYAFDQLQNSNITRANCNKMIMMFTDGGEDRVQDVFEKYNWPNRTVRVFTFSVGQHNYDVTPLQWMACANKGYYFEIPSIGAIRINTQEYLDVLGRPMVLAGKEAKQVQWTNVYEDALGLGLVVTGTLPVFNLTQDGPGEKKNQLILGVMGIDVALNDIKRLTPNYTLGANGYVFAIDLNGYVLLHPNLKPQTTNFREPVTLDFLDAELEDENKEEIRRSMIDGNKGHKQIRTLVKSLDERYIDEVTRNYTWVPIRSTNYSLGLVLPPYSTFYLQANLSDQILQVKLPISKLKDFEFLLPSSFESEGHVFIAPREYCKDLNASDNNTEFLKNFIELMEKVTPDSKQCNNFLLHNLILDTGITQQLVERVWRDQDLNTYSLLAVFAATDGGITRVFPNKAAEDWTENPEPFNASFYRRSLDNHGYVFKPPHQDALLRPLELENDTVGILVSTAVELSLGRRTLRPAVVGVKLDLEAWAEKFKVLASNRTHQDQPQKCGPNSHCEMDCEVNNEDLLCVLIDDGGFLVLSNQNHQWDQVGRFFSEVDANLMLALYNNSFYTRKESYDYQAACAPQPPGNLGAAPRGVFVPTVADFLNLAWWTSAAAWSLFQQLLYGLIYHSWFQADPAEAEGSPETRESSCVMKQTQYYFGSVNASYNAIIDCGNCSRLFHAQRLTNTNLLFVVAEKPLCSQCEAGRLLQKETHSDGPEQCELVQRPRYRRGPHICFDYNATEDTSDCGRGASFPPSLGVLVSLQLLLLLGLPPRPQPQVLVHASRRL
T1 sequence (Q02294 whole entry): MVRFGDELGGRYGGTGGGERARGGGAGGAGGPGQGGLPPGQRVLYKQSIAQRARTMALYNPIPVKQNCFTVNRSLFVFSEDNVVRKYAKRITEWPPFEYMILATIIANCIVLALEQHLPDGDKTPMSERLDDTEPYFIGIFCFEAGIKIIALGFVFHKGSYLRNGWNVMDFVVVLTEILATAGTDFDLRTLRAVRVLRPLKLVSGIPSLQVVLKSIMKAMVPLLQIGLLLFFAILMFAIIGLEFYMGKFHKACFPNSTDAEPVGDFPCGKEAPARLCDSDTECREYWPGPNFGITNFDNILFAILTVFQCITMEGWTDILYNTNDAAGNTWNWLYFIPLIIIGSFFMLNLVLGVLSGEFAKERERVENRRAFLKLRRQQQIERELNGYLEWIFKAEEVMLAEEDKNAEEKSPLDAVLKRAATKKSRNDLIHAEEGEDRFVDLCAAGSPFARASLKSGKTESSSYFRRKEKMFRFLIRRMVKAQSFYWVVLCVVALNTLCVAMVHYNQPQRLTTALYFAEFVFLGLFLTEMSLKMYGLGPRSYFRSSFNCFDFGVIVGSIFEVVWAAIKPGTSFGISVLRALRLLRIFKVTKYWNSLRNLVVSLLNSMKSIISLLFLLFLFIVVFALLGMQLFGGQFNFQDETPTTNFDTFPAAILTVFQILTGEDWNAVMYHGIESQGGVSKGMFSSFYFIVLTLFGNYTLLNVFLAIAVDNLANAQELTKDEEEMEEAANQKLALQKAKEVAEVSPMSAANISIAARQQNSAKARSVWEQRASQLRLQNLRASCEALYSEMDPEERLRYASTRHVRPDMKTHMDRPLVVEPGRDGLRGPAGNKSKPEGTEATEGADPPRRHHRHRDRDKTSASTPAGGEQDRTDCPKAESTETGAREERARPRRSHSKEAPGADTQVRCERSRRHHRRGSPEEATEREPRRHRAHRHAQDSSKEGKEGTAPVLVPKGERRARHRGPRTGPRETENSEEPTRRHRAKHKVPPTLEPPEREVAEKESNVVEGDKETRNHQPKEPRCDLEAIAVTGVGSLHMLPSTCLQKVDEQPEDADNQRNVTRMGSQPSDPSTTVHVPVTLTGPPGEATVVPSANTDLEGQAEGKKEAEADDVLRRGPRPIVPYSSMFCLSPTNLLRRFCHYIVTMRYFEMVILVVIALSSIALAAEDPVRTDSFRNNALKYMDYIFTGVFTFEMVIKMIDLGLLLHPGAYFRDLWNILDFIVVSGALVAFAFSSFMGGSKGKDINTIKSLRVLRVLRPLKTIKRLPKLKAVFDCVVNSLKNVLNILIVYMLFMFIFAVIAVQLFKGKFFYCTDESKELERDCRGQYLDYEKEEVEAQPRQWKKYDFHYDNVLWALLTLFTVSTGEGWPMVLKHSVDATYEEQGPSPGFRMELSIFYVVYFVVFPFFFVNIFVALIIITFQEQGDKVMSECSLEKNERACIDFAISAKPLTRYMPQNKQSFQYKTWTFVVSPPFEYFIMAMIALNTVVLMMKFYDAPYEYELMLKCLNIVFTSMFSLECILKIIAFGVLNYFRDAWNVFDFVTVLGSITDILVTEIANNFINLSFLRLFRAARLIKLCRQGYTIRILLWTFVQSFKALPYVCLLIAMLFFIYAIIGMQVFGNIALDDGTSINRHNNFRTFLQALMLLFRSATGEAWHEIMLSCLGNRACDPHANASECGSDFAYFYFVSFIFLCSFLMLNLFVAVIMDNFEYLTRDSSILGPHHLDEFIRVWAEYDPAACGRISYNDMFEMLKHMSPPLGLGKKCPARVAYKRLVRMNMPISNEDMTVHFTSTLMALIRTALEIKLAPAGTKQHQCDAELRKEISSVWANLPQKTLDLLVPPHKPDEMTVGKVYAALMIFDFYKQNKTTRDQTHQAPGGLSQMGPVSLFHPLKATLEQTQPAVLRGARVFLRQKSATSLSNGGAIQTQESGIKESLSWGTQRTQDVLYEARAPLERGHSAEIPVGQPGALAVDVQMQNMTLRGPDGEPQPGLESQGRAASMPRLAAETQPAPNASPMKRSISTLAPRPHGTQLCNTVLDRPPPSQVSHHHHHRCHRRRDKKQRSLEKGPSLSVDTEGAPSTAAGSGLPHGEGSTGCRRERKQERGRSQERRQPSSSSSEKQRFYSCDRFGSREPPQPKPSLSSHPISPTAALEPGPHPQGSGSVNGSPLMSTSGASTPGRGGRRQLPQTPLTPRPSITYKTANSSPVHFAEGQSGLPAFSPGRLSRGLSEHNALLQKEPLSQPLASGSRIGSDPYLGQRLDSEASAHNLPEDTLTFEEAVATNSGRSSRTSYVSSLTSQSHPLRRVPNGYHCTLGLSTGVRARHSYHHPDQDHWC

NCC1(CC(=O)O)CCCCC1 [Gabapentin]
binding to α2δ-2 (α2δ-2): bind

O=C(CC(c1ccccc1)c1ccccc1)N1CCN(C(c2ccccc2)c2ccccc2)CC1 [NMED 160 (HCl)]
inhibition of Ca2+ channel current (average current density) [1]: inhibition

B1: chicken α2δ subunit: α2δ-1 calcium channel subunit of White Leghorn chicken, SEQ ID NO:2, 1,087 amino acids (protein, listed as Gallus domesticus)
chain: MAAGWLLVFSLTLFQSLVMNHSSEGPFPSPTTIKSWVDKMQEDLITLARTASGVEQLAAIYLKNKDLYTVEANNPRQLVEIAARDIEKLLSNRSKALVRLAKEAEKYQASHQWRDEFGNNDIIYYNAKDDQNDPEKNDTESGSQRIRPVFEEDPVFRRQTSYQHAAVHIPTDIYEGSTIVLNELNWTAALDDVFKRNREEDPTLLWQVFGSATGLARYYPASPWVDNSRTPNKIDLYDVRRRPWYIQGAASPKDMLILVDASGSVSGLTLKLIRTSVIEMLETLSDDDFVNVVSFNNNAQNVSCFNHLVQANVRNKKKLKEAVDKISAKGITDYKKGFSYAFEQLLNHSVSRANCNKIIMLFTDGGEERAQEIFHKYNEDKKVRVFTFSVGQHNYDKGPIQWMACENKGYYYEIPSIGAIRINTQEYLDVLGRPMVLAGEKAKQVQWTNVYLDALELGLVITGTLPVFNLTKEQNGKINQLILGVMGVDVSLEDIKKLTPRFTLCPNGYYFAIDPNGYVLLHPNLQPKNPKSQEPVTLDFLDAELENDIKVEIRKKMIDGESGEKTFETLVKSQDERYIDKGNRTYTWTAVNGTDYSLALVLPSYSFYYIKAKIEEPITQARLEIKKDSETLKIDHFDEAGYTFIAPREYCTDVKKSENNTEFLLNFNEFIDRNTPSSPSCNTDMVIRVLLDAGFTNELAQNYWSKLYLDGVVAQFVVTDGGITRVFPKRAGEDWLENAETYEVSFYKRSLDNDNYIFTAPYYNKSGANSYESGIMVSKAVEITINGKLLKPAVVGIKIDAMKWMENFTTTTIKSLCNSEICGCEKNSMHVDCVILDDGGFLLMSNRDEYTHQIGRFFGEIDPGLMRNLINMSLYAFNKSYDYQSVCDPEEEPKQGAGLRSAYVPTIADILQLGWWASAAAWSILQQLFLSLTFPRFLEAADMEDDDFSTALPKTSCITEQTQYFFENDDKSFIGIVDCINCSRLYHAEKISNTNLVFIISDSQLLCRSCDPKPLMQAEKPDEGPNPCEMVKQPRYRKGPDVCFDEAKQEDSADCGGASGLSPSLWSMVGIQLVLLWLLSGSRHYQL
mean current density when coexpressed with chicken α2δ subunit (rat α1B+β1b Ca2+ channel): −74.5±14.0 pA/pF
